From patent US20110257146A1, “Method of Treating Kcnq Related Disorders Using Organozinc Compounds” (The johns Hopkins University, priority 2006, published 2011)

What was measured:
[1] = target: T1, Kv2.1 delay rectifier voltage-gated potassium channel (Homo sapiens, UniProt Q14721); assay: Channel activity in Kv2.1 stable line; format: cell-based
T1 construct: expressed in transfected cells
Procedure: Cell culture and transient transfection—Chinese Hamster Ovary (CHO) cells were grown in 50/50 DMEM/F12 (Cellgro) with 10% FBS (Gibco), 100 U/ml penicillin (Cellgro), 100 μg/ml streptomycin (Cellgro) and 2 mM L-glutamine (Gibco). At 24 hours before transfection, cells were split and plated in 60 mm dishes and were transfected with Lipofectamine2000™ reagent (Invitrogen) according to the manufacturer's instruction. At 24 hours after transfection, cells were split and re-plated onto coverslips coated with poly-L-lysine (Sigma). Plasmid expressing CD4 cDNA as a marker was cotransfected with the channel cDNAs of hKCNQ1 (from Dr. Michael Sanguinetti), hKCNQ4 (from Dr. Vitya Vardanyan), rKCNQ2, rKCNQ3, and hKCNQ5 (from Drs. David McKinnon, Mark Shapiro, and Thomas Jentsch). Prior to recording, anti-CD4 Dynabeads (Dynal. Biotech. Inc.) were added into the medium to allow for identification of the transfected cells. Stable lines expressing Kv2.1, hERG, and Kv4.2 were generated by standard protocols using pcDNA3.1 and maintained at complete medium supplemented with 500 μg/ml G418. […]
(§1) Electrophysiological Recording—Standard whole-cell recording was used. […] Current and voltage were recorded using an Axopatch-200A amplifier, filtered at 1 kHz and digitized using a DigiData 1322A with pClamp 9.2 software (Axon Instruments, Foster City, Calif.). […]

M-current = assay: Native M-current in isolated dorsal root ganglion neurons; format: cell-based, rat; settings: 10 μM ZnPy
Procedure: FIG. 10. ZnPy potentiation of native M-current. A. M current recorded from an isolated rat dorsal root ganglion neuron, Vh was −60 mV, stepped to −20 mV, followed by a step to −50 mV, and stepped back to −20 mV. B. Histograms show M-current amplitudes in the presence and absence of 10 μM ZnPy (n=10, * p<0.001). M-current amplitudes were measured by fitting the IM relaxation with an exponential equation. The recording bath solution includes 1 μM TTX, 0.2 mM TEA, 1 mM 4-AP, 50 μM CNQX, and 10 μM bicuculline. C. Membrane potential of an isolated hippocampal neuron was monitored when 10 μM ZnPy was applied in bath solution followed by the addition of 15 μM linopirdine. D. Action potentials elicited by 200 pA current injection to a patched hippocampal neuron. The ZnPy treatments are as indicated.
Neuron Culture—Dorsal root ganglia (DRG) was collected from fourteen-day-old CD rat and incubated in collagenase (sigma, 500 U/ml, 15 min) and then trypsin (Sigma, 1 mg/ml, 30 min) at 37° C. Single DRG neurons were isolated by mechanical trituration with a fire-polished glass Pasteur pipette. […]
as §1

KCNQ2 = KCNQ2 (Rattus norvegicus, UniProt O88943); assay: Non-radioactive rubidium efflux assay (KCNQ2 screen, HEK 293); format: cell-based; design: expressed in transfected cells
Procedure: To identify compounds with agonistic activities for M currents, stable cell lines for both KCNQ2 and KCNQ2/3 were generated. Under a pre-calibrated condition of medium-level rubidium efflux responses, more than 20,000 small molecule compounds were screened at a concentration of 10 μM. The selected condition allowed for identification of both inhibitors and potentiators. Selected compounds either increased or decreased the rubidium responses by more than 15% when compared to the control. A subset of the compounds were selected and validated for both potency and specificity.
KCNQ2 screen—HEK 293 cells stably expressing rat KCNQ2 were resuspended in DMEM/F12 medium and plated at a density of 4×10^4/well in poly-L-Lysine coated 96-well plates. Cells were then incubated at 37° C. with 5% CO2 overnight. 30 μl/well DMEM/F12 medium containing 30 mM RbCl was added to the cells the next day, followed by incubation for an additional 3 hours. Cell plating and reagent dispensing were done using a Multidrop 384 dispenser (Thermo Electron Corporation).
Compound addition and Rb^+ efflux assay were programmed and performed on a Cybi-Well™ system and Tekbench liquid handling system (Tekcel Inc., Hopkinton, Mass.), respectively. […] Rb^+ concentrations in both supernatant and cell lysates were measured by atomic absorption spectrometry using an ICR8000 instrument (Aurora Biomed, Vancouver, Canada).

T1 sequence (Q14721 whole entry): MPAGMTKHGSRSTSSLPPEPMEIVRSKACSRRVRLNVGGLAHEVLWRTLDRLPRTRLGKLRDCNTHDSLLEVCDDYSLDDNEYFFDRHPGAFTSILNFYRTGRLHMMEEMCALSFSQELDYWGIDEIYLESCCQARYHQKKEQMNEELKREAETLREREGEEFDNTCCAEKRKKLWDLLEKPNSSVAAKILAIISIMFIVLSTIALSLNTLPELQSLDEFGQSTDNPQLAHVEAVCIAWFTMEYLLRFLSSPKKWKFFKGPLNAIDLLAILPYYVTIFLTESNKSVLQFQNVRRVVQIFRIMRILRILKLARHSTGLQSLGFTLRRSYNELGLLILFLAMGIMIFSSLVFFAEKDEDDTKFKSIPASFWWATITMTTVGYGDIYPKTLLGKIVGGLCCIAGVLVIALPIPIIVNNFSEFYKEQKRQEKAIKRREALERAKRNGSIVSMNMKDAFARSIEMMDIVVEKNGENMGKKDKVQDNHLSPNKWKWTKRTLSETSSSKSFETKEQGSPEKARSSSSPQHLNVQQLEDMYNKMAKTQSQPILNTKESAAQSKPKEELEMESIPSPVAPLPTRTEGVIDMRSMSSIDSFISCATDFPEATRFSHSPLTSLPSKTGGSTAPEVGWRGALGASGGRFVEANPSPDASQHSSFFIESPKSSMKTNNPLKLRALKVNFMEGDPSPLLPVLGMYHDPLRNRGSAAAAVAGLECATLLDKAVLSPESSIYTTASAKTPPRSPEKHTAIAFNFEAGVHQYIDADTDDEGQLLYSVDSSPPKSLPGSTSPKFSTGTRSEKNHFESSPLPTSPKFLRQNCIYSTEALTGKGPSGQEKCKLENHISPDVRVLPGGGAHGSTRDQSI

S=c1ccccn1[O][Zn][O]n1ccccc1=S [ZnPy, Zinc Pyrithione]
potentiation of channel activity [1]: did not potentiate | potentiation of M-current amplitude (M-current): 1.9 fold | elevation of KCNQ activity by rubidium efflux (KCNQ2): unusual potency in elevating KCNQ activities
